Results reported in US20210214734A1, “METHODS FOR SELECTIVELY INHIBITING MOLECULAR CHAPERONE CLIENTS AND COMPOSITIONS FOR USE THEREOF” (Research Foundation for the State University of New York, priority 2020, published 2021).
Entries after “also recorded” stand apart in the source; their conditions may differ. Where no end group is shown, it is not given here. [ ]: non-standard residue; d: D form. Phe(4-F) = N[C@@H](Cc1ccc(F)cc1)C(=O)O

Tests used:
full length human Hsp90 = assay: 19F NMR R2 filter binding to Hsp90; design: 19F NMR signal change in presence of Hsp90 (binding): dose or concentration left out as unconfirmed; settings: for 19F NMR signal change in presence of Hsp90 (binding): 19F R2 filter, peptides tested individually, A01
Procedure: (§1) All the NMR experiments have been recorded at 298° K with a Bruker FT NMR Avance III 600-MHz spectrometer equipped with a 5-mm CryoProbe™ QCI^1H/^19F-^13C/^15N-D quadruple resonance, a shielded z-gradient coil, and the automatic sample handling system such as a SAMPLEJET™ brand sampling system with temperature control.
(§2) ^19F NMR experiments are a well-recognized approach to study the interaction between small molecules or peptides and proteins. […] This is due to the large dynamic range defined as the difference of the NMR measured response in the free and protein-bound states. ^19F R2 filter NMR experiments are among the most sensitive techniques for weak binding detection. See Dalvit et al., Journal of American Chemical Society, 125, 7696-7703 (2003). The transverse relaxation rate R2 is a very sensitive parameter for these studies, due to the large Chemical Shift Anisotropy (CSA) of ^19F nucleus and to the large exchange contribution See Dalvit et al., Journal of American Chemical Society, 125, 7696-7703 (2003); the compounds/peptides that interact with the receptor will show a broadening and intensity reduction in their ^19F NMR signal in presence of the protein
(§3) The 5 mM stock solution peptides were prepared in 100% in DMSOd6. Solubility and purity of the peptides in PBS buffer pH 7.4, 10% D2O (for the lock signal) were checked by ^19F and ^1H NMR spectroscopy. 1D ^19F NMR experiments were recorded with proton decoupling with the Waltz-16 scheme during the acquisition period with an acquisition time of 0.95 s, a relaxation delay of 30 s. whereas 1D version of the NOESY (nuclear Overhauser effect spectroscopy) pulse sequence with H2O signal presaturation, a mixing time of 10 ms and a relaxation delay of 30 s was used for ^1H NMR experiments.
(§4) For the binding studies R2 filter experiments were recorded with the Carr-Purcell-Meibom-Gill scheme with a time interval of 23.5 ms between the 180° pulses with a loop of 2, an acquisition time of 0.95 s a D1 of 5 s and a number of scans of 512. All the ^19F chemical shifts are referenced to the CFCl3 signal in water.

Cdc37 = target: T1, Cdc37 (Homo sapiens, UniProt Q16543); assay: 19F NMR R2 filter binding to Cdc37; design: dose or concentration left out as unconfirmed
T1 sequence (Q16543 1-378): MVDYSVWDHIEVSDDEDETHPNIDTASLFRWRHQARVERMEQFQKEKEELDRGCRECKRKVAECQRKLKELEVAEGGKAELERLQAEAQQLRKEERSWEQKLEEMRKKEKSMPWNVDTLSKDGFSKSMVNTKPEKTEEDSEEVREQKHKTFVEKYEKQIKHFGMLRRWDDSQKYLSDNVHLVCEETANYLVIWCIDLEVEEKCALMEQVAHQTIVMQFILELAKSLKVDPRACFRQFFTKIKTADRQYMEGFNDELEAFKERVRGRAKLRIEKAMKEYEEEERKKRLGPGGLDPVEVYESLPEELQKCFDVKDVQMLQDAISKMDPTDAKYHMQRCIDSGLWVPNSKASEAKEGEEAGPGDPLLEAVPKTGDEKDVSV
Procedure: as §1, §2, §3, §4

Aha1 [1] = target: Aha1 (Homo sapiens, UniProt O95433); assay: 19F NMR R2 filter binding to Aha1; settings: cAbl peptides at 10 mM
Aha1 (Homo sapiens, UniProt O95433), sequence (O95433 whole entry, species assumed): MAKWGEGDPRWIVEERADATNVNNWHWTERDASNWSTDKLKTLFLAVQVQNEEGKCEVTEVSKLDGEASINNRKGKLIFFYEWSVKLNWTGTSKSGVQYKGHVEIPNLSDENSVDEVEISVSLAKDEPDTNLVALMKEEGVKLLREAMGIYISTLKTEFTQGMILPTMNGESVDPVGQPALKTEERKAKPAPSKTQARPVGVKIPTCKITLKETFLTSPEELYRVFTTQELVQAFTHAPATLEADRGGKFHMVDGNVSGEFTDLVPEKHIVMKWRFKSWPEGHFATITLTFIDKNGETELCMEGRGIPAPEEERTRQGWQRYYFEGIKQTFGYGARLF
Procedure: as §1
(§5) ^19F NMR experiments are a well-recognized approach to study the interaction between small molecules or peptides and proteins. […] This is due to the large dynamic range defined as the difference of the NMR measured response in the free and protein-bound states. ^19F R2 filter NMR experiments are among the most sensitive techniques for weak binding detection. […]
(§6) The 5 mM stock solution peptides were prepared in 100% in DMSOd6. […] 1D ^19F NMR experiments were recorded with proton decoupling with the Waltz-16 scheme during the acquisition period with an acquisition time of 0.95 s, a relaxation delay of 30 s. whereas 1D version of the NOESY (nuclear Overhauser effect spectroscopy) pulse sequence with H2O signal presaturation, a mixing time of 10 ms and a relaxation delay of 30 s was used for ^1H NMR experiments.
(§7) For the binding studies R2 filter experiments were recorded with the Carr-Purcell-Meibom-Gill scheme with a time interval of 23.5 ms between the 180° pulses with a loop of 2, an acquisition time of 0.95 s a D1 of 5 s and a number of scans of 512. […]

[2] = tested on: Hsp90 chaperone complexes (Hsp90, Cdc37, Aha1); assay: 19F NMR binding to proteins of the Hsp90 chaperone system, single and mixed peptides
Procedure: as §1, §5, §6, §7

GR:Hsp90 = assay: GR dissociation from Hsp90 in 786-O cells; assay type: cell-based
Procedure: (§8) Human embryonic kidney (HEK293) and 786-O cells were acquired from the American Type Culture Collection (ATCC). HEK293 cells were grown in Dulbecco's Modified Eagle Medium (DMEM, Millipore-Sigma) and 786-O cells were grown in Roswell Park Memorial Institute (RPMI-1640, Millipore-Sigma) medium supplemented with 10% fetal bovine serum (FBS, Millipore-Sigma) in a CellQ incubator (Panasonic Healthcare) at 37° C. in 5% CO2.
Cultured cells were seeded 24 h prior to treatment. Peptides were added to cells at 50% confluency at the indicated concentrations and incubated for 24 h, followed by protein extraction as described below.
(§9) Protein extraction from mammalian cells was carried out using methods previously described. See Woodford et al., Cell Reports, 14, 872-884 (2016). For immunoprecipitation, protein lysates were incubated with Hsp90 antibody for 2 h followed by incubation with protein G agarose (Qiagen) for 2 h at 4° C. Immunopellets were washed 4 times with fresh lysis buffer (20 mM Tris (pH7.4), 100 mM NaCl, 1 mM MgCl2, 0.1% NP40, protease inhibitor cocktail (Roche), and PhosSTOP (Roche)) and eluted with 5× Laemmli buffer. Precipitated proteins were separated by SDS-PAGE and transferred to nitrocellulose membranes. Co-immunoprecipitated proteins were detected by immunoblotting with the indicated antibodies, diluted in 5% non-fat dry milk reconstituted in TBST.

[3] = target: Human Serum Albumin (HSA) (Homo sapiens, UniProt P02768); assay: 19F NMR control for non-specific binding to HSA; settings: 40 mM A01, A02 with 10 mM HSA
Procedure: as §1, §2, §3, §4

c-Abl = c-Abl protein level by immunoblot in treated HEK293 cells; assay type: cell-based, human; settings: 10 μM A01 or A02 with and without TAT, 36 hours
Procedure: as §8
(§10) Cultured cells were seeded 24 h prior to treatment. […]
as §9

c-Abl-Hsp90 interaction = assay: Hsp90 immunoprecipitation, c-Abl association in HEK293 cells; assay type: cell-based, human; settings: 10 μM, 36 hours, IP of endogenous Hsp90
Procedure: as §8, §10, §9

c-Src = assay: Immunoblot of unrelated client c-Src in HEK293 cells; assay type: cell-based, human; settings: 10 μM, 36 hours, selectivity control
Procedure: as §8, §10, §9

Cdk4 = assay: Immunoblot of unrelated client Cdk4 in HEK293 cells; assay type: cell-based, human; settings: 10 μM, 36 hours, selectivity control
Procedure: as §8, §10, §9

Akt = assay: Immunoblot of unrelated client Akt in HEK293 cells; assay type: cell-based, human; settings: 10 μM, 36 hours, selectivity control
Procedure: as §8, §10, §9

Aha1-Hsp90 complex = assay: Hsp90 immunoprecipitation, Aha1-Hsp90 complex in HEK293 cells; assay type: cell-based, human; settings: 10 μM, 36 hours
Procedure: as §8, §10, §9

Hsp90α-FLAG = Hsp90α-FLAG (Homo sapiens, UniProt P07900); assay: Biotinylated peptide streptavidin pulldown of Hsp90α; assay type: binding; settings: Hsp90α vs Hsp90β; biotinylated peptide pulldown
Procedure: Total cell lysates prepared as described above were incubated with the indicated amounts of biotinylated peptide at 4° C. for 1 h. Streptavidin agarose beads (ThermoScientific) were added and incubated 1 additional hour with gentle rotation. Bound Hsp90 was detected by immunoblotting as described herein.

Human Serum Albumin = target: T2, Human Serum Albumin (human, UniProt P02768 25-609); assay: 19F NMR
T2 construct: also called HSA

Aha1 [4] = target: T3, Aha1 (UniProt O95433 1-338, limits assumed); assay: 19F NMR R2 filter
T3 construct: Protein used in the 19F NMR experiments
T3 sequence (O95433 whole entry): as the sequence (O95433 whole entry, species assumed) above

YAGYDSSVPDSTWRIMTTLNMGGF(F)PEMLA (YAGYDSSVPDSTWRIMTTLNMGG[Phe(4-F)]PEMLA) [GR-02, glucocorticoid receptor mimic peptide]
19F NMR signal change in presence of Hsp90 (binding) (full length human Hsp90): bound to all of the tested proteins
binding to Cdc37 by 19F NMR (Cdc37): highest effect on Cdc37; also recorded: binding effect is higher on CDC37
binding to Aha1 by 19F NMR (Aha1 [1]): bound to all of the tested proteins
binding to members of the Hsp90 chaperone complex by 19F NMR ([2]; Hsp90, Cdc37, Aha1): binds to all the protein
competition among peptides when mixed (19F NMR signal variation vs single peptide) ([2]; peptides mixed together and added to protein solution): No significant difference
GR dissociation from Hsp90 (GR:Hsp90): showed GR dissociation from Hsp90

TLPCGGTWRIMTGIE F(F)PEMLA (TLPCGGTWRIMTGIE[Phe(4-F)]PEMLA) [GR-01, glucocorticoid receptor mimic peptide]
GR dissociation from Hsp90 (GR:Hsp90): showed GR dissociation from Hsp90

FGTVYKGKWGGGGF(F)STKPQLAGGGNVTAPTPQ (FGTVYKGKWGGGG[Phe(4-F)]STKPQLAGGGNVTAPTPQ) [B-Raf-02]
19F NMR signal change in presence of Hsp90 (binding) (full length human Hsp90): no or very weak interaction
binding to Cdc37 by 19F NMR (Cdc37): bound to Cdc37
binding interaction with HSA by 19F NMR [3]: no interactions were detected
binding interaction with HSA by 19F NMR ([3]; listed as Braf02-pep): do not interact with HSA

F(F)GGSPYPGIDLSQVYELLEK ([Phe(4-F)]GGSPYPGIDLSQVYELLEK) [A02]
binding to Hsp90 when A01 and A02 are mixed (full length human Hsp90; 19F NMR, peptides mixed): continue to bind to Hsp90 even when they are mixed
19F NMR signal change in presence of Hsp90 (binding) (full length human Hsp90): decrease in the presence of Hsp90, indicating peptide-protein binding
binding interaction with HSA by 19F NMR [3]: neither A01 nor A02 showed binding interaction with HSA
binding interaction with HSA by 19F NMR ([3]; listed as AblO2): do not interact with HSA
c-Abl protein levels (c-Abl): decrease of c-Abl protein levels
dissociation of c-Abl from Hsp90 (c-Abl-Hsp90 interaction): dissociation of c-Abl from Hsp90
c-Src stability or activity (c-Src): neither the related kinase c-Src nor the client kinases Cdk4 or Akt showed a defect in stability or activity
Cdk4 stability or activity (Cdk4): neither the related kinase c-Src nor the client kinases Cdk4 or Akt showed a defect in stability or activity
Akt stability or activity (Akt): neither the related kinase c-Src nor the client kinases Cdk4 or Akt showed a defect in stability or activity
Aha1-Hsp90 complex formation (Aha1-Hsp90 complex): decreased Aha1-Hsp90 complex formation
Hsp90 isoform specificity (Hsp90α-FLAG): neither peptide demonstrates isoform specificity

GYSTKPQLAGGGNVTAPTPQGF(F)QHSGS (GYSTKPQLAGGGNVTAPTPQG[Phe(4-F)]QHSGS) [B-Raf-01]
19F NMR signal change in presence of Hsp90 (binding) (full length human Hsp90): no or very weak interaction
binding interaction with HSA by 19F NMR [3]: no interactions were detected
binding interaction with HSA by 19F NMR ([3]; listed as Braf01-pep): do not interact with HSA

GYSTKPQLAGGGNVTAPTPQG[Phe(4-F)]QHSGS (also called Braf01-pep) [B-Raf-01]
binding result (Human Serum Albumin): no binding

FGTVYKGKWGGGG[Phe(4-F)]STKPQLAGGGNVTAPTPQ (also called Braf02-pep) [B-Raf-02]
binding result (Human Serum Albumin): no binding

[Phe(4-F)]GGSPYPGIDLSQVYELLEK (also called peptide A02; Abl02) [A02]
binding result (Human Serum Albumin): no binding (tested: 40 mM A02 with 10 mM HSA)

LGGGQ[Phe(4-F)]GEVYGGVAVKTLGGGEFLDEAAVMK (also called peptide A01; Abl01) [A01]
binding result (Human Serum Albumin): no binding (tested: 40 mM A01 with 10 mM HSA)
binding result (Aha1 [4]): no binding (tested: 10 mM of each cAbl peptide)
